Measurements taken from patent US4182896A, “Indane derivatives” (Societe Hexachimie, priority 1974, dated 1980).
Where a name gives a salt, the structure may show the parent alone.

What was measured:
Solubility in water = type: physicochemical; conditions: white powder, sodium salt
[1] = test system: SPF male rats, OFA strain; test: Anti-inflammatory activity: paw swelling after subcutaneous plantar injection of carraghenine, oral administration; type: in vivo; conditions: Rattus norvegicus, po; for inhibition in vivo at 64 mg/kg: 64 mg/kg oral; for inhibition in vivo at 128 mg/kg: 128 mg/kg oral; for inhibition in vivo at 256 mg/kg: 256 mg/kg oral; for ED50: at the moment of greatest swelling of the controls, read-out: ED50 (50% effective dose), anti-inflammatory; for inhibition in vivo at 16 mg/kg: 16 mg/kg oral; for inhibition in vivo at 32 mg/kg: 32 mg/kg oral
Method: Anti-inflammatory activity
The products to be tested are administered orally to batches of 12 SPF male rats, OFA strain, weighing 120-130 g, 2 hours and 30 minutes (1/2 dose each time) before the subcutaneous plantar injection of 0.05 ml of a 1% strength solution of carraghenine. The volume of the back paw which received the phlogogenic agent is measured at regular intervals. The 50% effective dose is calculated at the moment of greatest swelling of the controls.
The results are given in Tables I to IV below, in which the percentage reduction in the inflammation is noted.

[2] = test system: male mice (SPF1, OF1 strain); test: Analgesic activity: inhibition of pain reactions (abdominal twistings) after intraperitoneal phenylbenzoquinone, oral administration; type: in vivo; conditions: Mus musculus, po; for inhibition in vivo at 16 mg/kg: 16 mg/kg oral; for inhibition in vivo at 32 mg/kg: 32 mg/kg oral; for inhibition in vivo at 64 mg/kg: 64 mg/kg oral; for inhibition in vivo at 128 mg/kg: 128 mg/kg oral; for inhibition in vivo at 256 mg/kg: 256 mg/kg oral; for ED50: read-out: ED50 (50% effective dose), analgesic
Method: The products tested are administered orally to batches of 6 male mice (SPF1, OF1 strain) weighing 19-20 g.
1 hour later, 0.3 ml of a 0.02% strength solution of phenylbenzoquinone is injected intraperitoneally into each mouse and, from the 5th to the 10th minute after the latter treatment, the number of pain reactions (abdominal twistings) is counted.
Table V to VIII below give the percentage inhibition of these reactions.

[3] = carraghenine, read-out: percentage reduction in the inflammation
[4] = read-out: percentage inhibition of pain reactions

Row | SMILES | solubility in water (Solubility in water) | inhibition in vivo at 64 mg/kg [1, 3] [%] | inhibition in vivo at 128 mg/kg [1, 3] [%] | inhibition in vivo at 256 mg/kg [1, 3] [%] | ED50 [1] [mg/kg] | inhibition in vivo at 16 mg/kg [2, 4] [%] | inhibition in vivo at 32 mg/kg [2, 4] [%] | inhibition in vivo at 64 mg/kg [2, 4] [%] | inhibition in vivo at 128 mg/kg [2, 4] [%] | inhibition in vivo at 256 mg/kg [2, 4] [%] | ED50 [2] [mg/kg] | inhibition in vivo at 16 mg/kg [1, 3] [%] | inhibition in vivo at 32 mg/kg [1, 3] [%] | inhibition in vivo at 512 mg/kg ([1]; 512 mg/kg oral, carraghenine, read-out: percentage reduction in the inflammation) [%] | inhibition in vivo at 8 mg/kg ([2]; 8 mg/kg oral, read-out: percentage inhibition of pain reactions) [%]
1 | CC1CC(C)c2cc(C(C)C(=O)O)ccc21 (centres unmarked) [Example 6, Sodium salt of 2-methyl-[1,3-dimethyl-indanyl-(5)]-acetic acid] | soluble in water | 16 | 39 | 44 | > 256 | 28 | 41 | 59 | 78 | 72 | 40 |  |  |  | 
2 | CC1Cc2ccc(C(C)C(=O)O)cc2C1 (centres unmarked) [Example 15, Sodium salt of 2-methyl-[2-methyl-indanyl-(5)]-acetic acid] | soluble in water | 27 | 41 | 68 | 160 | 18 | 68 | 91 |  |  | 23 | 11 | 20 | 72 | 14
3 | CC(C(=O)O)c1ccc2c(c1)CC(C(C)C)C2 (centres unmarked) [Example 31, Sodium salt of 2-methyl-[2-isopropyl-indanyl-(5)]-acetic acid] | soluble in water |  |  |  |  |  |  |  |  |  |  |  |  |  | 
4 | CCC1Cc2ccc(C(C)CO)cc2C1 (stereo not drawn) [Example 34, 2-Methyl-β-[2-ethyl-indanyl-(5)]-ethanol] |  | 51 | 60 | 61 | 50 |  | 12 | 22 | 60 | 94 | 95 | 46 | 42 |  | 
5 | CC1Cc2ccc(CCO)cc2C1 (stereo not drawn) [Example 35, β-[2-Methyl-indanyl-(5)]-ethanol] |  | 56 | 76 | 89 | 35 |  | 10 | 27 | 69 | 95 | 87 | 43 | 42 |  | 
6 | CC(C)C1Cc2ccc(CCO)cc2C1 (stereo not drawn) [Example 37, β-[2-Isopropyl-indanyl-(5)]-ethanol] |  | 21 | 41 | 30 | > 256 | 0 | 40 | 55 | 62 | 81 | 60 | 0 | 1 |  | 
